The structures appear in SMILES notation. pIC50: −log10 of the molar value.

The text below walks through data of US6391900B1, “Cytotoxic tris(oxazole)-containing macrolides” (Instituto Biomar S.A., priority 1998, dated 2002).

The test system of experiment [1] is A-549 (monolayer culture of a human lung carcinoma). The experiment is described as follows: in vitro cytotoxic assay, A-549 cells. To be noted: A549, 72 h, three days of incubation, Crystal Violet staining, approximate IC50. The experiment is classed as cell-based. The protocol:
(§1) Cells were maintained in logarithmic phase of growth in Eagle's Minimum Essential Medium, with Earle's Balanced Salts, with 2.0 mM L-glutamine, with non-essential amino acids, without sodium bicarbonate EMEM/neaa); supplemented with 10% Fetal Calf Serum (FCS), 10^−2 M sodium bicarbonate and 0.1 g/l penicillin-G+streptomycin sulfate.
(§2) A screening procedure has been carried out to determine and compare the antitumor activity of these compounds, using an adapted form of the method described by Bergeron et al. (Reference 5). The antitumor cells employed were P-388 (suspension culture of a lymphoid neoplasm from DBA/2 mouse), A-549 (monolayer culture of a human lung carcinoma), HT-29 (monolayer culture of a human colon carcinoma) and MEL-28 (monolayer culture of a human melanoma).
(§3) A-549, HT-29 and MEL-28 cells were seeded into 16 mm wells at 2×10^4 cells per well in 1 ml aliquots of MEM 10FCS containing the indicated concentration of drug. A separate set of cultures without drug was seeded as control growth to ensure that cells remained in exponential phase of growth. All determinations were carried out in duplicate. After three days of incubation at 37° C., 10% CO2 in a 98% humid atmosphere, the wells were stained with 0.1% Crystal Violet. An approximately IC50 was determined by comparing the growth in wells with drug to the growth in wells control.

Experiment [2] concerns MEL-28 (monolayer culture of a human melanoma). The experiment is described as follows: in vitro cytotoxic assay, MEL-28 cells. The experiment is classed as cell-based. Particulars: SK-MEL-28, 72 h, three days of incubation, Crystal Violet staining, approximate IC50. On the procedure:
as §1, §2, §3

Experiment [3] relates to HT-29 (monolayer culture of a human colon carcinoma). Put plainly: in vitro cytotoxic assay, HT-29 cells. The experiment is classed as cell-based. Particulars: 72 h, three days of incubation, Crystal Violet staining, approximate IC50. On the procedure: as §1, §2, §3
In experiment [4] the test system is solid tumors like A-549, HT-29 and MEL-28. The experiment is described as follows: in vitro antitumor selectivity across the cytotoxicity panel. Particulars: solid tumor lines A-549, HT-29, MEL-28 compared with P-388. It counts as cell-based, human. The protocol:
as §2
(§4) […] cells were seeded into 16 mm wells at 1×10^4 sells per well in 1 ml aliquots of MEM SFCS containing the indicated concentration of drug. A separate set of cultures without drug was seeded as control growth to ensure that cells remained in exponential phase of growth. All determinations were carried out in duplicate. After three days of incubation at 37° C., 10% CO2 in a 98% humid atmosphere, an approximately IC50 was determined by comparing the growth in wells with drug to the growth in wells control.
A-549, HT-29 and MEL-28 cells were seeded into 16 mm wells at 2×10^4 cells per well in 1 ml aliquots of MEM 10FCS containing the indicated concentration of drug. A separate set of cultures without drug was seeded as control growth to ensure that cells remained in exponential phase of growth. […] An approximately IC50 was determined by comparing the growth in wells with drug to the growth in wells control.

Experiment [5] deals with P-388 (suspension culture of a lymphoid neoplasm from DBA/2 mouse). Put plainly: in vitro cytotoxic assay, P-388 cells. It counts as cell-based. To be noted: P388, 72 h, three days of incubation, approximate IC50 by growth vs control wells. The protocol: as §1, §2, §4

The pIC50 is the IC50 on a negative log10 scale, so that one unit is a factor of ten. For `COC(CC1OC(=O)CC(OC(N)=O)CC(C)CC(O)C(C)C(OC)c2coc(n2)-c2coc(n2)-c2coc(n2)/C=C/CC(OC)C1C)C(C)CCC(=O)C(C)C(OC)C(C)CC=O` (centres unmarked) [TH-2], the pIC50 in experiment [1] was 8.70; in experiment [2], 8.70; in experiment [3], 8.70; in experiment [5] it was 7.96. In addition, the “in vitro antitumor selectivity for solid tumors” value in experiment [4] was “in vitro antitumor selectivity for solid timors”.
